Experimental data reported in the supplement of paper PMC7214452.
Structures can show the parent of a compound that is named as a salt.

What was measured:
Test in all cases: normalized area under the dose-response curve (viability relative to DMSO control) (fraction); higher = less sensitive (more viable cells)
Conditions in all cases: exposure time not given
[1] = system: Granta-519 (cancer type: Mantle)
Experimental: (§1)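 25 myeloma and 15 non-Hodgkin lymphoma cell lines were exposed to each of 76 drugs as 7-point log dilutions (0.01 nM–10 µM) in duplicate. Viability was read with CellTiter-Glo and normalised to DMSO (0.1%) and staurosporine (10 µM) plate controls. Normalised AUC was calculated by the trapezoidal method relative to the negative control.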

[2] = system: OCI-LY19 (cancer type: DLBCL)
Experimental: as §1

My-La (cancer type: TCL) = system: My-La (cancer type: TCL)
Experimental: as §1

SKMM2 (cancer type: MM) = system: SKMM2 (cancer type: MM)
Experimental: as §1

[3] = system: JeKo-1 (cancer type: Mantle)
Experimental: as §1

AMO1 (cancer type: MM) = system: AMO1 (cancer type: MM)
Experimental: as §1

KMS26 (cancer type: MM) = system: KMS26 (cancer type: MM)
Experimental: as §1

[4] = system: RPMI 8226 (cancer type: MM)
Experimental: as §1

[5] = system: Mino (cancer type: Mantle)
Experimental: as §1

[6] = system: OCI-MY5 (cancer type: MM)
Experimental: as §1

[7] = system: OCI-MY5/Vec (cancer type: MM)
Experimental: as §1

Se-Ax (cancer type: TCL) = system: Se-Ax (cancer type: TCL)
Experimental: as §1

MM1.S (cancer type: MM) = system: MM1.S (cancer type: MM)
Experimental: as §1

LP1 (cancer type: MM) = system: LP1 (cancer type: MM)
Experimental: as §1

[8] = system: SU-DHL2 (cancer type: DLBCL)
Experimental: as §1

[9] = system: SU-DHL1 (cancer type: TCL)
Experimental: as §1

[10] = system: OCI-LY1 (cancer type: DLBCL)
Experimental: as §1

U266 (cancer type: MM) = system: U266 (cancer type: MM)
Experimental: as §1

MM1.R (cancer type: MM) = system: MM1.R (cancer type: MM)
Experimental: as §1

XG2 (cancer type: MM) = system: XG2 (cancer type: MM)
Experimental: as §1

[11] = system: OCI-MY7 (cancer type: MM)
Experimental: as §1

[12] = system: OCI-MY5/CRBN (cancer type: MM)
Experimental: as §1

KMS34 (cancer type: MM) = system: KMS34 (cancer type: MM)
Experimental: as §1

EJM (cancer type: MM) = system: EJM (cancer type: MM)
Experimental: as §1

[13] = system: OCI-LY3 (cancer type: DLBCL)
Experimental: as §1

KMS11 (cancer type: MM) = system: KMS11 (cancer type: MM)
Experimental: as §1

[14] = system: KMS28PE (cancer type: MM)
Experimental: as §1

[15] = system: SU-DHL6 (cancer type: DLBCL)
Experimental: as §1

OPM2 (cancer type: MM) = system: OPM2 (cancer type: MM)
Experimental: as §1

JJN3 (cancer type: MM) = system: JJN3 (cancer type: MM)
Experimental: as §1

[16] = system: JVM2 (cancer type: Mantle)
Experimental: as §1

L363 (cancer type: MM) = system: L363 (cancer type: MM)
Experimental: as §1

KMS18 (cancer type: MM) = system: KMS18 (cancer type: MM)
Experimental: as §1

[17] = system: HuT 78 (cancer type: TCL)
Experimental: as §1

FR4 (cancer type: MM) = system: FR4 (cancer type: MM)
Experimental: as §1

[18] = system: SR-786 (cancer type: TCL)
Experimental: as §1

[19] = system: KMS12PE (cancer type: MM)
Experimental: as §1

[20] = system: Karpas-299 (cancer type: TCL)
Experimental: as §1

[21] = system: NCI-H929 (cancer type: MM)
Experimental: as §1

[22] = system: KMS28BM (cancer type: MM)
Experimental: as §1

Structure (SMILES)	normalized area under the dose-response curve [1]	normalized area under the dose-response curve [2]	normalized area under the dose-response curve (My-La (cancer type: TCL))	normalized area under the dose-response curve (SKMM2 (cancer type: MM))	normalized area under the dose-response curve [3]	normalized area under the dose-response curve (AMO1 (cancer type: MM))	normalized area under the dose-response curve (KMS26 (cancer type: MM))	normalized area under the dose-response curve [4]	normalized area under the dose-response curve [5]	normalized area under the dose-response curve [6]	normalized area under the dose-response curve [7]	normalized area under the dose-response curve (Se-Ax (cancer type: TCL))	normalized area under the dose-response curve (MM1.S (cancer type: MM))	normalized area under the dose-response curve (LP1 (cancer type: MM))	normalized area under the dose-response curve [8]	normalized area under the dose-response curve [9]	normalized area under the dose-response curve [10]	normalized area under the dose-response curve (U266 (cancer type: MM))	normalized area under the dose-response curve (MM1.R (cancer type: MM))	normalized area under the dose-response curve (XG2 (cancer type: MM))	normalized area under the dose-response curve [11]	normalized area under the dose-response curve [12]	normalized area under the dose-response curve (KMS34 (cancer type: MM))	normalized area under the dose-response curve (EJM (cancer type: MM))	normalized area under the dose-response curve [13]	normalized area under the dose-response curve (KMS11 (cancer type: MM))	normalized area under the dose-response curve [14]	normalized area under the dose-response curve [15]	normalized area under the dose-response curve (OPM2 (cancer type: MM))	normalized area under the dose-response curve (JJN3 (cancer type: MM))	normalized area under the dose-response curve [16]	normalized area under the dose-response curve (L363 (cancer type: MM))	normalized area under the dose-response curve (KMS18 (cancer type: MM))	normalized area under the dose-response curve [17]	normalized area under the dose-response curve (FR4 (cancer type: MM))	normalized area under the dose-response curve [18]	normalized area under the dose-response curve [19]	normalized area under the dose-response curve [20]	normalized area under the dose-response curve [21]	normalized area under the dose-response curve [22]
Cc1[nH]c2ccccc2c1CCNCc1ccc(/C=C/C(=O)NO)cc1 [Panobinostat]	0.424	0.36	0.422	0.698	0.284	0.444	0.454	0.682	0.303	0.297	0.173	0.244	0.25	0.592	0.286	0.23	0.167	0.389	0.35	0.483	0.47	0.13	0.333	0.188	0.322	0.659	0.52	0.501	0.812	0.56	0.347	0.613	0.618	0.249	0.594	0.374	0.42	0.187	0.16	0.567
Cc1ccc(Nc2nccc(N(C)c3ccc4c(C)n(C)nc4c3)n2)cc1S(N)(=O)=O [Pazopanib hydrochloride]	0.899	0.859	0.879	0.86	0.881	0.798	0.848	0.827	0.939	0.667	0.764	0.732	0.79	0.602	0.931	0.833	0.906	0.681	0.77	0.876	0.78	0.855	0.347	0.861	1	0.713	0.796	0.99	0.653	0.628	0.721	0.666	0.732	0.795	0.759	0.789	0.82	0.829	0.77	0.921
Nc1cccc2c1C(=O)N(C1CCC(=O)NC1=O)C2=O (stereo not given) [Pomalidomide]	0.87	0.854	0.875	0.973	0.843	0.879	0.86	0.959	0.884	0.9	0.897	0.767	0.74	0.871	0.917	0.846	0.964	0.96	0.76	0.77	0.9	0.908	0.917	0.879	0.979	0.912	0.962	0.989	0.963	0.994	0.889	0.887	0.886	0.986	0.949	0.947	0.9	0.914	0.78	0.925
Cc1ccc(C(=O)Nc2ccc(CN3CCN(C)CC3)c(C(F)(F)F)c2)cc1C#Cc1cnc2cccnn12 [Ponatinib]	0.755	0.726	0.615	0.55	0.52	0.431	0.593	0.237	0.501	0.361	0.613	0.417	0.57	0.408	0.797	0.239	0.678	0.381	0.5	0.454	0.48	0.665	0.298	0.427	0.859	0.458	0.501	0.79	0.419	0.344	0.44	0.461	0.479	0.527	0.451	0.673	0.48	0.719	0.52	0.551
CC(C)(C)c1cc(NC(=O)Nc2ccc(-c3cn4c(n3)sc3cc(OCCN5CCOCC5)ccc34)cc2)no1 [Quizartinib]	0.941	0.923	0.917	0.973	0.98	0.837	0.934	0.955	0.863	0.65	0.894	0.825	0.82	0.766	0.956	0.686	0.987	0.867	0.69	0.763	0.91	0.917	0.439	0.861	0.959	0.828	0.898	0.907	0.531	0.631	0.764	0.751	0.737	0.865	0.923	0.869	0.87	0.93	0.88	0.838
O=C(c1ccc(OCCN2CCCCC2)cc1)c1c(-c2ccc(O)cc2)sc2cc(O)ccc12 [Raloxifene]	0.939	0.914	0.974	0.953	0.939	0.704	0.869	0.86	1.01	0.744	0.787	0.854	0.85	0.731	0.919	0.677	0.932	0.814	0.89	0.746	0.92	0.857	0.657	0.859	0.945	0.866	0.849	0.856	0.865	0.821	0.884	0.829	0.848	0.786	0.896	0.78	0.91	0.945	0.91	0.889
